Data as given in ChEMBL document CHEMBL3137667, “[Drug-induced liver injury; fourteenth updated edition of the bibliographic database of liver injuries and related drugs]” (Gastroenterol Clin Biol, 2004).

Assays:
[1] = Highest frequency of acute liver toxicity observed during clinical trials, expressed as a percentage. [column '% AIGUE' in source]; details: human
[2] = Highest frequency of moderate liver toxicity observed during clinical trials, expressed as a percentage. [column '% BIOL' in source]; details: human
[3] = human
[4] = human; remark: listed apart in the source
[5] = human; remark: listed apart in the source
[6] = Presence of at least one case with successful reintroduction. [column 'REINT' in source]; details: human
[7] = human; remark: listed apart in the source
[8] = human, serum
[9] = human, serum, 4383 h
[10] = human; remark: listed apart in the source
[11] = human; remark: listed apart in the source
[12] = human; remark: listed apart in the source
[13] = human; remark: listed apart in the source
[14] = human, serum; remark: listed apart in the source
[15] = human; remark: listed apart in the source
[16] = Times to onset, minimal and maximal, observed in the indexed observations. [column 'DELAI' in source]; details: human
[17] = Proposed mechanism(s) of liver damage. [column 'MEC' in source]; details: human
[18] = Comments (NB not yet translated). [column 'COMMENTAIRES' in source]; details: human
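For Hepatotoxicity (association with vascular disease) in this document: count of indexed literature references reporting vascular liver injury in humans, e.g. peliosis hepatitis, hepatic veno-occlusive disease or Budd-Chiari syndrome.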
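For Hepatotoxicity (benign tumour) in this document: value is a count of indexed literature references citing a benign tumour confirmed by histopathology.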
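For Hepatotoxicity (choleostasis) in this document: human cholestatic liver injury, shown by histopathology or by peak ALT or AST elevation over alkaline phosphatase ratio below 2, value counts indexed literature reports.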
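For Hepatotoxicity (chronic liver disease) in this document: chronic liver injury confirmed by histopathology or persistently raised serum aminotransferase activity beyond 6 months, value given as the count of indexed literature references.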
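For Hepatotoxicity (cirrhosis) in this document: value is a count of indexed literature references reporting cirrhosis confirmed by histopathology.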
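For Hepatotoxicity (cytolytic) in this document: human cytolytic liver injury, shown by histopathology or by a ratio above 5 of peak ALT or AST elevation to alkaline phosphatase elevation, value counts indexed references.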
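For Hepatotoxicity (granulomatous hepatitis) in this document: value is a count of indexed literature references reporting granulomatous liver disease confirmed by histopathology.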
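For Hepatotoxicity (malignant tumour) in this document: malignant tumour confirmed by histopathology, value gives the count of indexed literature references reporting it.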
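For Hepatotoxicity (severe hepatitis) in this document: human clinical data: severe hepatitis, meaning potentially life-threatening liver failure or clinically observed cases, the value counts how many indexed literature references report it.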
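For Hepatotoxicity (steatosis) in this document: steatosis confirmed by histopathology, value is the count of indexed references.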

Compound | Hepatotoxicity (acute) [1] [%] | Hepatotoxicity (moderate) [2] [%] | Hepatotoxicity (choleostasis) [3] | Hepatotoxicity (steatosis) [4] | Hepatotoxicity (malignant tumour) [5] | Hepatotoxicity (successful reintroduction) [6] | Hepatotoxicity (benign tumour) [7] | Hepatotoxicity (moderate) [8] | Hepatotoxicity (chronic liver disease) [9] | Hepatotoxicity (severe hepatitis) [10] | Hepatotoxicity (granulomatous hepatitis) [11] | Hepatotoxicity (cirrhosis) [12] | Hepatotoxicity (cytolytic) [13] | Hepatotoxicity (acute) [14] | Hepatotoxicity (association with vascular disease) [15] | Hepatotoxicity (time to onset) [16] | other results
O=C1CN2Cc3c(ccc(Cl)c3Cl)N=C2N1 [ANAGRELIDE] | 0 | 0.2 | 1 | 0 | 0 | yes | 0 | 1 | 0 | 0 | 0 | 0 | 0 | 1 | 0 |  | 
CNC1=Nc2ccc(Cl)cc2C(c2ccccc2)=[N+]([O-])C1 [CHLORDIAZEPOXIDE] | 0 | 11 | 3 | 0 | 0 | yes | 0 | 3 | 0 | 0 | 0 | 0 | 1 |  | 0 | 2 days - 3 years | 
CN1CCN(C(c2ccccc2)c2ccccc2)CC1 [CYCLIZINE] | 0 | 0 | 0 | 0 | 0 | yes | 0 | 0 | 0 | 0 | 0 | 0 | 0 | 1 | 0 |  | 
CC(C(=O)Nc1cc(-c2ccccc2)nn1-c1ccccc1)N(C)C (centres undefined) [DIFENAMIZOLE] | 0 | 0 | 0 | 0 | 0 | yes | 0 | 0 | 0 | 1 | 0 | 0 | 1 | 1 | 0 |  | 
CCc1c2c(nc3ccc(OC(=O)N4CCC(N5CCCCC5)CC4)cc13)-c1cc3c(c(=O)n1C2)COC(=O)[C@]3(O)CC [IRINOTECAN] |  |  | 2 | 0 | 0 | yes | 0 | 12 | 0 |  | 0 | 0 | 1 | 3 | 0 |  | Hepatotoxicity (acute) ([1]; Liver): 4.2%; Hepatotoxicity (moderate) ([2]; Liver): 13.3%; Hepatotoxicity (severe hepatitis) ([10]; Liver): 0
O=[N+]([O-])O[C@H]1CO[C@H]2[C@@H]1OC[C@H]2O[N+](=O)[O-] [ISOSORBIDE DINITRATE] | 0 | 0 | 0 | 0 | 0 | yes | 0 | 1 | 0 | 0 | 0 | 0 | 0 | 1 | 0 |  | 
COc1c2occc2cc2ccc(=O)oc12 [METHOXSALEN] |  |  | 0 | 0 | 0 | yes | 0 | 1 | 0 |  | 0 | 0 | 3 |  | 0 | 2 hours - 5 months | Hepatotoxicity (acute) ([1]; Liver): 0%; Hepatotoxicity (moderate) ([2]; Liver): 0%; Hepatotoxicity (severe hepatitis) ([10]; Liver): 1
COc1cc(Cc2cnc(N)nc2N)cc(OC)c1OC [TRIMETHOPRIM] |  |  |  | 0 | 0 | yes | 0 | 1 | 0 |  |  | 0 |  |  | 0 | 5 days - 24 days | Hepatotoxicity (acute) ([1]; Liver): 0%; Hepatotoxicity (moderate) ([2]; Liver): 5.9%; Hepatotoxicity (choleostasis) ([3]; Liver): 5; Hepatotoxicity (severe hepatitis) ([10]; Liver): 1; Hepatotoxicity (granulomatous hepatitis) ([11]; Liver): 0; Hepatotoxicity (cytolytic) ([13]; Liver): 2
COc1cc(C(=S)N2CCOCC2)cc(OC)c1OC [TRITIOZINE] | 0 | 3 | 0 | 0 | 0 | yes | 0 | 1 | 0 | 0 | 0 | 0 | 0 | 2 | 0 |  | 
GOLD | 0.8 | 40 | 44 | 0 | 0 |  | 0 | 22 | 1 | 5 | 1 | 0 | 7 | 52 | 0 | 1 week - 5 years | Hepatotoxicity (mechanism) [17]: Allergic, Dose-dependant; Hepatotoxicity (comment) [18]: AC_ANTI-ADN/-ML/-N HLA-DR3 PERICHOLANGITE
INTERFERON ALFA | 0 | 58 | 1 | 3 | 0 |  | 0 | 21 | 0 | 1 | 0 | 1 | 2 | 2 | 0 | 8 days - 8 months | Hepatotoxicity (mechanism) [17]: Dose-dependant; Hepatotoxicity (comment) [18]: AGGRAVATION_HEPATITE_AUTOIMMUNE/B/DELTA AC_ANTI-ML/LKM/CH
